The structures appear in SMILES notation. Some results are limits rather than exact numbers.

In assay [1] the target is Chromatin remodeling regulator CECR2 (Homo sapiens, UniProt Q9BXF3). Kind of assay: Displacement of biotinylated small-molecule ligand from recombinant His-tagged CECR2 (unknown origin) measured after 10 mins by TR-FRET assay.
For a further assay, the system named is LP-1. Kind of assay: Cytotoxicity against human LP-1 cells measured after 8 days. The note with it: LP-1, 192 h. The format is functional, cell-based.
The next assay deals with NCI-H1838. Kind of assay: Cytotoxicity against human NCI-H1838 cells measured after 8 days. The settings on record: NCI-H1838, 192 h. The format is functional, cell-based.
In the next assay the test system is NCI-H1155. Kind of assay: Cytotoxicity against human NCI-H1155 cells measured after 8 days. The note with it: NCI-H1155, 192 h. Type of assay: functional, cell-based.
Another assay concerns NCI-H1944. Put plainly: Cytotoxicity against human NCI-H1944 cells measured after 8 days. The format is functional, cell-based. The note with it: NCI-H1944, 192 h.
The nature of assay [2]: Cytotoxicity against human NCI-H2595 cells measured after 8 days. Type of assay: functional, cell-based. The settings on record: NCI-H2595, 192 h.
For another assay, the system named is OPM-2. Put plainly: Cytotoxicity against human OPM-2 cells measured after 8 days. The note with it: OPM-2, 192 h. Type of assay: functional, cell-based.
A further assay deals with NCI-H460. Kind of assay: Cytotoxicity against human NCI-H460 cells measured after 8 days. Type of assay: functional, cell-based. The note with it: NCI-H460, 192 h.
The test system of another assay is EVSA-T. Kind of assay: Cytotoxicity against human EVSA-T cells measured after 8 days. The format is functional, cell-based. The settings on record: 192 h.
A further assay deals with HCC1419. Put plainly: Cytotoxicity against human HCC1419 cells measured after 8 days. Type of assay: functional, cell-based. The note with it: HCC1419, 192 h.
The next assay concerns HCC1937. Put plainly: Cytotoxicity against human HCC1937 cells measured after 8 days. The format is functional, cell-based. The settings on record: HCC1937, 192 h.
Assay [3] is described as follows: Cytotoxicity against human OVCA429 cells measured after 8 days. The format is functional, cell-based. The settings on record: OVCA429, 192 h.
The test system of another assay is DAN-G. Kind of assay: Cytotoxicity against human DAN-G cells measured after 8 days. Type of assay: functional, cell-based. The settings on record: 192 h.
The subject of the next assay is CW-2. Kind of assay: Cytotoxicity against human CW-2 cells measured after 8 days. The note with it: CW-2, 192 h. Type of assay: functional, cell-based.
A short description of assay [4]: Cytotoxicity against human OUMS-23 cells measured after 8 days. The note with it: OUMS-23, 192 h. The format is functional, cell-based.
In assay [5] the target is T1, Transcription intermediary factor 1-alpha (Homo sapiens, UniProt O15164).
T1 sequence (O15164 whole entry): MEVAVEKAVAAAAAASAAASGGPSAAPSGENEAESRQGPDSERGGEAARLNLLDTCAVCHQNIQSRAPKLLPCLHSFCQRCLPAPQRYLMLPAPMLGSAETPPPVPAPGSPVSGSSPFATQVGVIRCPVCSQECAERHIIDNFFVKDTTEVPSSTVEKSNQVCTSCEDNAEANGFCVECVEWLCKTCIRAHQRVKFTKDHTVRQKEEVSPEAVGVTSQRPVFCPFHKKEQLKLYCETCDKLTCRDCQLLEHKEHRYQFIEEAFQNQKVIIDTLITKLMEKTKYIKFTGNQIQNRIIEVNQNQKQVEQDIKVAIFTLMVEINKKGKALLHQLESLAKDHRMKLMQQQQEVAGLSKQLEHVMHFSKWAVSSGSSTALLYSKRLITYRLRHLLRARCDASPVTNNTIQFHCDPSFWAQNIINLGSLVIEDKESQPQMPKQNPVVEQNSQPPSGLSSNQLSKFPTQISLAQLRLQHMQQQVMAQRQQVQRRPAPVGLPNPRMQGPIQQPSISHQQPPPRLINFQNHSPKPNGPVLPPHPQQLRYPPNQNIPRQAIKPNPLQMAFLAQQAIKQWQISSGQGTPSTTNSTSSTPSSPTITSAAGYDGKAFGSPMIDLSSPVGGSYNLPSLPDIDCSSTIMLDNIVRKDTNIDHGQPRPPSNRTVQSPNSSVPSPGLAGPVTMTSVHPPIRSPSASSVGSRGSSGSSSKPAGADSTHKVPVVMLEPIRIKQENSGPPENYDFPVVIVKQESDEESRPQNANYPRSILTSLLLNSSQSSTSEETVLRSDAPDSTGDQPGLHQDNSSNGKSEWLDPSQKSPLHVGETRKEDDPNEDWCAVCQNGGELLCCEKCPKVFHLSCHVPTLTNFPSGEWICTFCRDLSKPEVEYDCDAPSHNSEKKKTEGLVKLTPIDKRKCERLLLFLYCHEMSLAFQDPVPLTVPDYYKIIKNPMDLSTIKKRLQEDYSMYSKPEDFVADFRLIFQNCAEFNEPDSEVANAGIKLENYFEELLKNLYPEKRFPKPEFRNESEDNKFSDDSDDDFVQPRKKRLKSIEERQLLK
Put plainly: Binding affinity to human partial length TRIM24 (P790 to P977 residues) expressed in bacterial expression system by BROMOscan assay.

Assay [6] deals with Proto-oncogene tyrosine-protein kinase receptor Ret (Homo sapiens) (UniProt P07949). Put plainly: Inhibition of Ret (unknown origin) at 1 uM relative to control.
The target in assay [7] is D(1A) dopamine receptor (Homo sapiens) (UniProt P21728). Put plainly: Displacement of [3H]-SCH 23390 from human recombinant dopamine D1 receptor at 10 uM by scintillation counting 60 mins analysis relative to control. (Displacement assays read how much labelled ligand stays bound in the presence of the test substance.)
Chain of D(1A) dopamine receptor (Homo sapiens) (P21728 whole entry): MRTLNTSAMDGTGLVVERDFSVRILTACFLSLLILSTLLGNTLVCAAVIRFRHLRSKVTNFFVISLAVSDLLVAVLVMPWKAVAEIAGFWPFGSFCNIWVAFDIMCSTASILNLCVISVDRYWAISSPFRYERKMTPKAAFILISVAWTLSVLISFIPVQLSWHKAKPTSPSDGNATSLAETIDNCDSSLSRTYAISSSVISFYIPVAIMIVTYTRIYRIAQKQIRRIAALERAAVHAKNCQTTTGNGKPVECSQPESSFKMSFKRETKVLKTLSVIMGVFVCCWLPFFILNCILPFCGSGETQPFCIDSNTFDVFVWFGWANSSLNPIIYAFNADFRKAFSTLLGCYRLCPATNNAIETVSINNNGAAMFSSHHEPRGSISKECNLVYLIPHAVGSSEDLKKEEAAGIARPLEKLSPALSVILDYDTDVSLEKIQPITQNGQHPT

Chain of Proto-oncogene tyrosine-protein kinase receptor Ret (Homo sapiens) (P07949 whole entry): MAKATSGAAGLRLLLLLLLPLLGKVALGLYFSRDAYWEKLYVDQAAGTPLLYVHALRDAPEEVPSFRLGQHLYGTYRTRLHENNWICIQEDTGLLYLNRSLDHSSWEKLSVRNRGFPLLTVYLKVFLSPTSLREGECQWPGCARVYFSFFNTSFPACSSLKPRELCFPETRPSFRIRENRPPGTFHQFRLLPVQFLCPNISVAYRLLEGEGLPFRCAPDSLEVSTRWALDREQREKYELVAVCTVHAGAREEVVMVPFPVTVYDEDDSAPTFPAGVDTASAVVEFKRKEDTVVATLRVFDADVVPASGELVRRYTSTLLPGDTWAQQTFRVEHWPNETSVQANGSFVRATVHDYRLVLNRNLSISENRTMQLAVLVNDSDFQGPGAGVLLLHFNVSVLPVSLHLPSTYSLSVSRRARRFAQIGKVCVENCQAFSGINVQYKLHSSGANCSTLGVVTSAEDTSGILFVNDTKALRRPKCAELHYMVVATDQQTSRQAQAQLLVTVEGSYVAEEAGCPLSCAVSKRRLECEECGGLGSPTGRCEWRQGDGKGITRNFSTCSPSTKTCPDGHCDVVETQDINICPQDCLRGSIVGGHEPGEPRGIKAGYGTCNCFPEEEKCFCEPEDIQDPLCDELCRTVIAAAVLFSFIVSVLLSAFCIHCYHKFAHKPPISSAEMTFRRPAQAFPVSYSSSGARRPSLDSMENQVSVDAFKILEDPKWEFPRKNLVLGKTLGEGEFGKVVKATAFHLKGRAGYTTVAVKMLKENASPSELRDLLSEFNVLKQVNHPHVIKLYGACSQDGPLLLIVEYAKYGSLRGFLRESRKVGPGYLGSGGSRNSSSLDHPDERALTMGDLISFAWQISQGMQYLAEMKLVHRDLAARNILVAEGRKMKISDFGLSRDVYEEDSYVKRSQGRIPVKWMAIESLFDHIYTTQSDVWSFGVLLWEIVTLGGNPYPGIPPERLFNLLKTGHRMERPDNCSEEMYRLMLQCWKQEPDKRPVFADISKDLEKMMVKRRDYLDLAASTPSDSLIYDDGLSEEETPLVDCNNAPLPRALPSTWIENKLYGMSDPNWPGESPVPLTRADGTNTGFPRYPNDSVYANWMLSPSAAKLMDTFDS
Chain of Chromatin remodeling regulator CECR2 (Q9BXF3 whole entry): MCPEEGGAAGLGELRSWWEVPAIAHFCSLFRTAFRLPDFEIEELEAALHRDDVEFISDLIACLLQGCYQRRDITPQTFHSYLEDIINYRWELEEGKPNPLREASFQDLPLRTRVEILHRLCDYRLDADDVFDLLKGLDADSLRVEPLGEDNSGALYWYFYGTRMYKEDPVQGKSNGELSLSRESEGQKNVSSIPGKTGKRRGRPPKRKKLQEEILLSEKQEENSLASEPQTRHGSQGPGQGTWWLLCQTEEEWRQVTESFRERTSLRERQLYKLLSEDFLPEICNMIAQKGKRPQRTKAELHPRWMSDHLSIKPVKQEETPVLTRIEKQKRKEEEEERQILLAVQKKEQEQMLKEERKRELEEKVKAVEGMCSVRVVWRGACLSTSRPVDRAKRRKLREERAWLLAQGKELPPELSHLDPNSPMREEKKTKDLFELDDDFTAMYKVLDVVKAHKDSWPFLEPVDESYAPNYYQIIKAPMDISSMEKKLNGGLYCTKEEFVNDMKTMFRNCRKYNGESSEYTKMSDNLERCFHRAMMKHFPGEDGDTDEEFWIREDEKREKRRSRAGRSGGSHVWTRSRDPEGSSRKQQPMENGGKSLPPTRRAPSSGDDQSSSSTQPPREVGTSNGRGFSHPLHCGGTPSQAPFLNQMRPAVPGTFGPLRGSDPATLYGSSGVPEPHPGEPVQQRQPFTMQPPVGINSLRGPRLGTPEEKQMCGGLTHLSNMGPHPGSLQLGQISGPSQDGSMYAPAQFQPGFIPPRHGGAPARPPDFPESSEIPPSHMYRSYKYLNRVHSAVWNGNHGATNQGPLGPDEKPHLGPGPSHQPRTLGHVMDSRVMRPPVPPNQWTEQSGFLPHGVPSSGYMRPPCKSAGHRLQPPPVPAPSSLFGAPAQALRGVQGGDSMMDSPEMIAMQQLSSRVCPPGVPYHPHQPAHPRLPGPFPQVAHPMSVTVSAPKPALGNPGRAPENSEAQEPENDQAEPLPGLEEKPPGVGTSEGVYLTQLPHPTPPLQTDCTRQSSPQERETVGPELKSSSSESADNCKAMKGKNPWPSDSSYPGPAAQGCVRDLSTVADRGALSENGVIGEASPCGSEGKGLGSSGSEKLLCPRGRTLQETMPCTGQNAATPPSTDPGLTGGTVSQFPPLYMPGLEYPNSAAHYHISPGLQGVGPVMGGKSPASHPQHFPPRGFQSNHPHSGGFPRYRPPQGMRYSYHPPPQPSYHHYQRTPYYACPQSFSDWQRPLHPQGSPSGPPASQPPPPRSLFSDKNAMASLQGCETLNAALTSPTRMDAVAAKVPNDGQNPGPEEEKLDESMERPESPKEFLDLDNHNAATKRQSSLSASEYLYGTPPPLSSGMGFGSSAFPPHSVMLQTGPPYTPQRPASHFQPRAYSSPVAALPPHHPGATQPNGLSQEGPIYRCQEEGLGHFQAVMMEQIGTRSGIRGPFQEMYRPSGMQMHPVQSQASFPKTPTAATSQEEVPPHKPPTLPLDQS

`C/C=C/Cn1cc(-c2ccc(C(C)(C)O)cc2OC)c2cc[nH]c2c1=O`: the half-inhibitory concentration (IC50) is > 20 µM in [1]; 19.5 µM in the assay on LP-1; 20 µM with NCI-H1838; 20 µM with NCI-H1155; 20 µM in the assay on NCI-H1944; 20 µM in assay [2]. The half-maximal inhibitory concentration (IC50) amounted to 13.7 µM with OPM-2; 20 µM with NCI-H460; 20 µM in the assay on EVSA-T; 20 µM in the assay with HCC1419; 20 µM in the assay with HCC1937; 20 µM in [3]. Moreover, the IC50 (with DAN-G; in the assay on CW-2; in assay [4]) was 20 µM each time. Also, the Kd in [5] is > 10 µM. Further, the inhibition in [6] turned out to be 2%. Also, in assay [7], the Activity was determined as 0%.
Turning to `C/C=C/Cn1cc(-c2ccc(C(=O)N3CCOCC3)cc2)c2cc[nH]c2c1=O`, the 50% inhibitory concentration (IC50) in assay [1] stood at 2.9 µM; in the assay with LP-1 it was 20 µM; in the assay with NCI-H1838 it was 20 µM; in the assay on NCI-H1155, 20 µM; in the assay on NCI-H1944 it was 20 µM; in assay [2] it was 20 µM. The IC50 in the assay on OPM-2 was determined as 10 µM; in the assay on NCI-H460, 20 µM; in the assay with EVSA-T, 20 µM; in the assay with HCC1419, 20 µM; with HCC1937, 20 µM; in assay [3], 20 µM. The IC50 (in the assay with DAN-G; in the assay with CW-2; in assay [4]) was 20 µM throughout. Also, the equilibrium dissociation constant (Kd) in assay [5] amounted to 26 µM. Further, the inhibition in [6] was -0.9%. In [7], the Activity was found to be 6%.
As to `C/C=C/Cn1cc(-c2cc(OC)c(C(=O)N3CCOCC3)cc2OC)c2cc(C)[nH]c2c1=O`, the IC50 came to 2.4 µM in [1]; 2 µM in the assay with LP-1; 2 µM in the assay on NCI-H1838; 2 µM in the assay on NCI-H1155; 2 µM in the assay on NCI-H1944; 2 µM in [2]. Also, the IC50 was determined as 2 µM in the assay with OPM-2; 2 µM with NCI-H460; 2 µM in the assay on EVSA-T; 2 µM in the assay with HCC1419; 2 µM in the assay on HCC1937; 1.77 µM in assay [3]. The IC50 (in the assay with DAN-G; with CW-2; in assay [4]) was 2 µM each time. The Kd in [5] is > 10 µM. The inhibition in [6] worked out at 3%. For the same compound, the Activity in assay [7] was determined as 4%.
Regarding `C/C=C/Cn1cc(-c2cc(OC)c(C(C)(C)O)cc2OC)c2cc(C)[nH]c2c1=O`, the IC50 in assay [1] is 4.3 µM. In addition, in [5], the equilibrium dissociation constant (Kd) is > 10 µM.

In general, IC50 refers to the concentration that inhibits the measured activity by half. What is called Kd is a measure of binding affinity in units of concentration. High values mean lower affinity, low ones higher affinity. The term inhibition denotes the change of the read-out against control, counted positive when it falls.

Values taken from ChEMBL document CHEMBL5260810, “Inhibition of bromodomain-containing protein 9 for the prevention of epigenetically-defined drug resistance” (Bioorg Med Chem Lett, 2017).
